A value given as a limit tells only on which side of the number the result lay.

Assay [1] concerns the target Glycogen synthase kinase-3 beta (Homo sapiens, UniProt P49841). Description: TR-FRET Assay. In a few lines:
(§1)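 Kinase activity, measured after a 30-minute compound preincubation, was stopped with EDTA and quantified by TR-FRET using a Tb-labelled pSer641 antibody paired with streptavidin-d2.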

Assay [2] deals with Glycogen synthase kinase-3 alpha (Homo sapiens, UniProt P49840). Kind of assay: TR-FRET Assay. In short, it runs like this: as §1
Background: In TR-FRET formats the signal depends on donor and acceptor labels being close together.

Chain of Glycogen synthase kinase-3 alpha (P49840 whole entry): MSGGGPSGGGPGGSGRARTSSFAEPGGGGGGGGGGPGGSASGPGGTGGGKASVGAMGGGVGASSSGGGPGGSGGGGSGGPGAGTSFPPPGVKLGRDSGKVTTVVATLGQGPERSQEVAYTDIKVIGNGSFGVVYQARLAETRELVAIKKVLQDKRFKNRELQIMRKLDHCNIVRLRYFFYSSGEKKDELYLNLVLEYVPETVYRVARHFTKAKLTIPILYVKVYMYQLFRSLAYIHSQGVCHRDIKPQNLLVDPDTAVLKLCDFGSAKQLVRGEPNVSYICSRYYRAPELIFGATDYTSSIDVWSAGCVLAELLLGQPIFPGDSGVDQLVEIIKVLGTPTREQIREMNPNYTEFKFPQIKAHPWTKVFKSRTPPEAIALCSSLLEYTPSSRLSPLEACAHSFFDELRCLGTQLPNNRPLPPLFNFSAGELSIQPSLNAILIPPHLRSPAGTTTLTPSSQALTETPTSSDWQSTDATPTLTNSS
Chain of Glycogen synthase kinase-3 beta (P49841 whole entry): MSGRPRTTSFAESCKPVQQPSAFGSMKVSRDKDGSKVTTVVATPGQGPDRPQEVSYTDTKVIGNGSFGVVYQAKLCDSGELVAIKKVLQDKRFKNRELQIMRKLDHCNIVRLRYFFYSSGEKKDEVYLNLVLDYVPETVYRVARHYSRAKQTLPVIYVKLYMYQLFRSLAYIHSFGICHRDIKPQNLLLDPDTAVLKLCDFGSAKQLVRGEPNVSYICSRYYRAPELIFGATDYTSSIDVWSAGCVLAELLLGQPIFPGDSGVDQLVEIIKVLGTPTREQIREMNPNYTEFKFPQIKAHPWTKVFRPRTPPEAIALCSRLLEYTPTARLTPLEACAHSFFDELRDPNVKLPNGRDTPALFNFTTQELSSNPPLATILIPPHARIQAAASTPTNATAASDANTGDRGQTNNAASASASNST

On to `CC1(C)CC(=O)C2=C(C1)NC1=C(CN=N1)C21CN(c2cccnc2)C1` [US20250313563, Compound 947813], for which the IC50 in assay [1] and in assay [2] was 1000 to 5000 nM throughout.
With `CC1(C)CC(=O)C2=C(C1)NC1=C(CN=N1)C21CN(Cc2cnc3ccccn23)C1` [US20250313563, Compound 932654], the IC50 in assay [1] and in assay [2] was > 5000 nM each time.
Turning to `CC[C@@]1(c2cccc(-c3cc(C(C)(C)C)nn3C)c2)C2=CN=NC2NC2=C1C(=O)NC(C)(C)C2` (stereo partly drawn) [US20250313563, Compound 951843], the IC50 (in general, the concentration that gives 50% inhibition) in assay [1] was > 5000 nM; in assay [2], 100 to 1000 nM.
The matching figures for `CC[C@]1(c2ccc(C)cc2)C2=CN=NC2NC2=C1C(=O)CC(C)(C)C2` (stereo partly drawn) [US20250313563, Compound 789457]: 1000 to 5000 nM and 100 to 1000 nM.
The corresponding values for `CC[C@@]1(c2cccc(-c3cnn(C)c3C)c2)C2=C(CC(C)(C)CC2=O)NC2N=NC(C)=C21` (stereo partly drawn) [US20250313563, Compound 913024] are 1000 to 5000 nM and 100 to 1000 nM.
Consider `CC[C@]1(c2cccc(N3CCC3(C)C)c2)C2=CN=NC2NC2=C1C(=O)CC(C)(C)C2` (stereo partly drawn) [US20250313563, Compound 913140], for which the half-maximal inhibitory concentration (IC50) was 100 to 1000 nM in assay [1] and < 100 nM in assay [2].
As for `CCC1(c2cccc(N(C)c3ncccn3)c2)C2=C(CC(C)(C)NC2=O)NC2N=NC(C)=C21` (stereo not drawn) [US20250313563, Compound 948175], the IC50 in assay [1] and in assay [2] was < 100 nM in each case.
In the case of `CC(=O)N1CC2(C1)C[C@@]1(CO2)C2=C(N=NC2)NC2=C1C(=O)CC(C)(C)C2` [US20250313563, Compound 926861], the IC50 in assay [1] and in assay [2] was < 100 nM throughout.
In the case of `C[C@H]1CCC[C@@]2(C1)C1=C(N=NC1)NC1=C2C(=O)CC(C)(C)C1` [US20250313563, Compound 893318], the IC50 in assay [1] and in assay [2] was 100 to 1000 nM each time.
As for `CC[C@@]1(c2cccc(N3CCCc4ncccc43)c2)C2=CN=NC2NC2=C1C(=O)CC(C)(C)C2` (stereo partly drawn) [US20250313563, Compound 917079], the 50% inhibitory concentration (IC50) in assay [1] was 1000 to 5000 nM; in assay [2], 100 to 1000 nM.
The matching figures for `CCc1cc(-c2cccc([C@]3(CC)C4=CN=NC4NC4=C3C(=O)NC(C)(C)C4)c2)ccn1` (stereo partly drawn) [US20250313563, Compound 948370]: 100 to 1000 nM and < 100 nM.
Take `CC[C@@]1(c2cccc(-c3ccnc(N(C)C)c3)c2)C2=C(CC(C)(C)CC2=O)NC2N=NC(C)=C21` (stereo partly drawn) [US20250313563, Compound 913021]: the half-inhibitory concentration (IC50) in assay [1] and in assay [2] was < 100 nM in each case.
`CC1(C)CC(=O)C2=C(C1)NC1N=NC(Br)=C1[C@]21CCc2c(F)cccc21` (stereo partly drawn) [US20250313563, Compound 806939]: the IC50 in assay [1] and in assay [2] was < 100 nM each time.
Regarding `CC[C@@]1(c2cccc(Cl)c2)C2=C(CC(C)(C)CC2=O)NC2N=NC(Br)=C21` (stereo partly drawn) [US20250313563, Compound 801315], the IC50 in assay [1] and in assay [2] was 100 to 1000 nM each time.
Turning to `CC[C@@]1(c2cccc(-c3ccncc3C)c2)C2=C(CC(C)(C)CC2=O)NC2N=NC(C(F)(F)F)=C21` (stereo partly drawn) [US20250313563, Compound 947325], the IC50 is 100 to 1000 nM in assay [1] and < 100 nM in assay [2].
The matching figures for `CCC1(c2cccc(-c3ccncc3F)c2)C2=CN=NC2NC2=C1C(=O)CC(C)(C)C2` (stereo not drawn) [US20250313563, Compound 883986]: < 100 nM and < 100 nM.
The corresponding values for `CC1(C)CC(=O)C2=C(C1)NC1=C(CN=N1)C21CN(S(=O)(=O)C2CCCCC2)C1` [US20250313563, Compound 918275] are < 100 nM and < 100 nM.
The matching figures for `CC[C@]1(c2cccc(-c3ccncc3C(F)(F)F)c2)C2=CN=NC2NC2=C1C(=O)NC(C)(C)C2` (stereo partly drawn) [US20250313563, Compound 949516]: > 5000 nM and 1000 to 5000 nM.
As to `CC[C@@]1(c2cccc([C@@H](C)c3ncccn3)c2)C2=CN=NC2NC2=C1C(=O)CC(C)(C)C2` (stereo partly drawn) [US20250313563, Compound 948061], the IC50 in assay [1] lay in the range of 1000 to 5000 nM; in assay [2] it was 100 to 1000 nM.
On to `CC[C@]1(c2cccc(-c3ccnc4cc(Cl)c(C)cc34)c2)C2=CN=NC2NC2=C1C(=O)NC(C)(C)C2` (stereo partly drawn) [US20250313563, Compound 948645], for which the IC50 was > 5000 nM in assay [1] and 100 to 1000 nM in assay [2].
The matching figures for `Cn1ccc(S(=O)(=O)N2CC3(C2)C2=C(N=NC2)NC2=C3C(=O)CC(C)(C)C2)n1` [US20250313563, Compound 913260]: < 100 nM and < 100 nM.
The corresponding values for `COc1cccc(S(=O)(=O)N2CC[C@]3(C2)C2=C(N=NC2)NC2=C3C(=O)CC(C)(C)C2)c1` [US20250313563, Compound 951790] are < 100 nM and < 100 nM.
The corresponding values for `COc1ccc(S(=O)(=O)N2CCC3(CC2)C2=C(N=NC2)NC2=C3C(=O)CC(C)(C)C2)cc1` [US20250313563, Compound 901469] are 100 to 1000 nM and 100 to 1000 nM.
Consider `CC1(C)CC(=O)C2=C(C1)NC1=C(CN=N1)C21CCN(S(=O)(=O)c2ccc(C(F)(F)F)cn2)CC1` [US20250313563, Compound 947902], for which the half-maximal inhibitory concentration (IC50) in assay [1] and in assay [2] was < 100 nM each time.
Take `CC1(C)CC(=O)C2=C(C1)NC1=C(CN=N1)[C@]21COC2(CN(C(=O)C3CCCC3)C2)C1` [US20250313563, Compound 943958]: the figures for the half-maximal inhibitory concentration (IC50) in assay [1] and in assay [2] were 1000 to 5000 nM and 100 to 1000 nM, respectively.
The matching figures for `CC[C@]1(c2cccc(C(F)(F)F)c2)C2=C(N=NC2)NC2=C1C(=O)N(Cc1ccccc1)[C@@H]2C` [US20250313563, Compound 930330]: 100 to 1000 nM and < 100 nM.
The matching figures for `CN(C)C(=O)C1CCC2(CC1)C1=C(N=NC1)NC1=C2C(=O)CC(C)(C)C1` (stereo not drawn) [US20250313563, Compound 945395]: 1000 to 5000 nM and 100 to 1000 nM.
Take `CCC1(c2cccc(N(C)c3ncccn3)c2)C2=C(CC(C)(C)NC2=O)NC2N=NC(C(F)F)=C21` (stereo not drawn) [US20250313563, Compound 950484]: the IC50 in assay [1] and in assay [2] was < 100 nM throughout.
As to `CC1(C)CC(=O)C2=C(C1)NC1=C(CN=N1)C21CCN(S(=O)(=O)c2ccc(C(F)(F)F)cc2)CC1` [US20250313563, Compound 947256], the half-inhibitory concentration (IC50) in assay [1] and in assay [2] was < 100 nM each time.
Take `CC1(C)CC(=O)C2=C(C1)NC1=C(CN=N1)[C@@]21COC2(CN(S(C)(=O)=O)C2)C1` [US20250313563, Compound 913057]: the IC50 in assay [1] and in assay [2] was < 100 nM throughout.
Regarding `CC[C@]1(c2cccc(N(C)c3ncccn3)c2)C2=C(CC(C)(C)NC2=O)NC2N=NC(F)=C21` (stereo partly drawn) [US20250313563, Compound 949647], the values for the IC50 in assay [1] and in assay [2] were > 5000 nM and 100 to 1000 nM, respectively.
The corresponding values for `CCC1(c2cccc(N(C)C(=O)C3CCOCC3)c2)C2=CN=NC2NC2=C1C(=O)CC(C)(C)C2` (stereo not drawn) [US20250313563, Compound 912070] are 100 to 1000 nM and < 100 nM.
The corresponding values for `CC1(C)CC(=O)C2=C(NC3N=NC=C3C23CCCCC3)[C@H]1F` (stereo partly drawn) [US20250313563, Compound 951711] are < 100 nM and < 100 nM.
Regarding `CC1(C)CC(=O)C2=C(C1)NC1=C(CN=N1)C21COC2(CN(C(=O)C3CCC(F)C3)C2)C1` (stereo not drawn) [US20250313563, Compound 947486], the IC50 in assay [1] and in assay [2] was < 100 nM throughout.

(Values after BindingDB's records for patent US20250313563 (The Broad Institute, 2025).)
